This is an account of results in ChEMBL document CHEMBL3507680, “University of Dundee, Gates Library screen for HepG2 cell viability”.

This data set can be described thus: Human HepG2 cell viability assay in 384 well format. More on the design: dose 125 nL, time 70.5 hour; cytotoxicity at 70.5 h: concentration not given beside the values. Format: toxicity, cell-based. As to conditions: HepG2 cells, read-out: Inhibition.

Consider `CS(=O)(=O)N1Cc2ccccc2CC2(CCN(Cc3ccccn3)C2)C1` (stereo not drawn), for which the cytotoxicity at 70.5 h was -10.1%.

On to `CC(C)C(=O)N1Cc2ccccc2CC2(CCCN2C)C1` (stereo not drawn), for which the cytotoxicity at 70.5 h is -10.9%.

With `CN1CCCCC12Cc1ccccc1CN(C(=O)c1ccccc1)C2` (stereo not drawn), the cytotoxicity at 70.5 h is -5.36%.

Take `O=C(c1ccc(Cl)cc1)N1CCC2(C1)C(=O)Nc1ccccc12` (stereo not drawn): the cytotoxicity at 70.5 h was -7.9%.

Regarding `CC(=O)N1CCC2(CC1)CC(NS(C)(=O)=O)c1ccccc1O2` (stereo not drawn), the cytotoxicity at 70.5 h was -4.04%.

Consider `CN1Cc2ccccc2NC(=O)C12CCNC2` (stereo not drawn), for which the cytotoxicity at 70.5 h was -2.63%.

With `N#Cc1ccc(CN2CCCC3(Cc4ccccc4CNC3=O)C2)cc1` (stereo not drawn), the cytotoxicity at 70.5 h stood at 31.4%.

On to `O=C1NCc2ccccc2CC12CCCN(Cc1ccsc1)C2` (stereo not drawn), for which the cytotoxicity at 70.5 h is 2.74%.

Take `O=C1NCc2ccccc2CC12CCN(Cc1c(F)cccc1Cl)C2` (stereo not drawn): the cytotoxicity at 70.5 h was -5.69%.

With `O=C(NCC1CC1)c1cc(C2CC2)nc2onc(C3CCCNC3)c12` (stereo not drawn), the cytotoxicity at 70.5 h is -7.5%.

For the molecule `CC(C)CNC(=O)c1cc(C2CC2)nc2onc(C3CCNCC3)c12`, the cytotoxicity at 70.5 h is -3.04%.

For `O=C(c1ccc(Cl)cc1)N1CCC(N2CCCOC2=O)CC1`, the cytotoxicity at 70.5 h is -6.91%.

On to `O=C(C1CCCCC1)N1CCC2(COc3ncccc3S(=O)(=O)N2)C1` (stereo not drawn), for which the cytotoxicity at 70.5 h was -4.42%.

For the molecule `O=C(NC1CCCCC1)N1CCCC1c1nnc2n1CCNC2` (stereo not drawn), the cytotoxicity at 70.5 h came out at 19.4%.

As to `O=C(N1CCCCC1)N1CCCC1c1nnc2n1CCNC2` (stereo not drawn), the cytotoxicity at 70.5 h was 17.6%.

As for `CN1CCC2(Cc3ccccc3CN(C(=O)c3ccc(Cl)cc3)C2)C1` (stereo not drawn), the cytotoxicity at 70.5 h is 35.9%.

Turning to `CN1CCC2(Cc3ccccc3CN(C(=O)CCN)C2)C1` (stereo not drawn), the cytotoxicity at 70.5 h was found to be 27.3%.

Consider `O=C1Nc2ccccc2CC12CCCN2Cc1ccccn1` (stereo not drawn), for which the cytotoxicity at 70.5 h came out at 29.1%.

As for `CC(C)NC(=O)NCc1nnc2n1C(C(=O)N(C)C)CC2` (stereo not drawn), the cytotoxicity at 70.5 h was -3.97%.

With `CC(C)NC(=O)C1CCc2nnc(CNC(=O)C3CC3)n21` (stereo not drawn), the cytotoxicity at 70.5 h was -6.43%.

On to `CN1CC(=O)N(C2CCC2)Cc2c(NC3CCNCC3)ncnc21`, for which the cytotoxicity at 70.5 h is -3.78%.

Take `CN1CC(=O)N(C2CCNC2)Cc2c(NC3CCCC3)ncnc21` (stereo not drawn): the cytotoxicity at 70.5 h was -5.19%.

Regarding `CN1CC(=O)N(C2CCCNC2)Cc2c(NC3CCC3)ncnc21` (stereo not drawn), the cytotoxicity at 70.5 h was -3.06%.

As to `CN(Cc1nc2ccccc2[nH]1)C(=O)CN(C)c1ccc(Cl)cn1`, the cytotoxicity at 70.5 h was 7.7%.

Turning to `NC(=O)C(NC1CCN(Cc2ccc(F)cc2)CC1)c1ccccc1` (stereo not drawn), the cytotoxicity at 70.5 h is -13.1%.

Regarding `COc1ccccc1C(NC(=O)CN(C)C(C)C)c1noc(C)n1` (stereo not drawn), the cytotoxicity at 70.5 h is -2.25%.

On to `CC(C)(CNC(=O)c1ccco1)NC(=O)OC(C)(C)C`, for which the cytotoxicity at 70.5 h was -12.7%.

As for `CC(C)(CNC(=O)c1ccc(Cl)o1)NC(=O)OC(C)(C)C`, the cytotoxicity at 70.5 h amounted to 22.2%.

Regarding `Cn1cc(N2CCN(c3ccc(C#N)c(Cl)c3)CC2=O)cn1`, the cytotoxicity at 70.5 h was -14.1%.

For the molecule `Cn1ccc(N2CCCC(NC(=O)c3ccsc3)C2=O)n1` (stereo not drawn), the cytotoxicity at 70.5 h was found to be 20.9%.

For the molecule `NC(=O)CCn1ccc(NCc2cc(F)ccc2Br)n1`, the cytotoxicity at 70.5 h is -10.5%.

In the case of `O=C(O)c1cnc(OCC2CC2)c(Cl)c1`, the cytotoxicity at 70.5 h is -0.42%.

For `Cn1cc(N2CCN(c3ccc(C#N)cc3Br)CC2=O)cn1`, the cytotoxicity at 70.5 h is -4.85%.

In the case of `CC(CO)NC(=O)Nc1ccc(CC#N)cc1` (stereo not drawn), the cytotoxicity at 70.5 h was -4.42%.

Regarding `CCC(C)(CC(=O)OC)NCc1noc(C)n1` (stereo not drawn), the cytotoxicity at 70.5 h came to 26.6%.

Take `CSCCC(=O)N1CCN(CC(C)O)CC1` (stereo not drawn): the cytotoxicity at 70.5 h is -2.96%.

In the case of `CCN(Cc1ncc(C(C)(C)C)o1)Cc1ccccc1C`, the cytotoxicity at 70.5 h was -1.58%.

For the molecule `CCN(CC(C)O)C(=O)Nc1cnn(CCOC)c1` (stereo not drawn), the cytotoxicity at 70.5 h is 6.07%.

In the case of `COCCN(Cc1ccc(C)o1)C(=O)Nc1nnc(C(F)F)s1`, the cytotoxicity at 70.5 h is -7.33%.

In the case of `CCN1CCN2CCCN(S(=O)(=O)c3cccc(F)c3)C2C1=O` (stereo not drawn), the cytotoxicity at 70.5 h is -8.84%.

Regarding `CS(=O)(=O)Cc1cccc(CNS(=O)(=O)c2ccc(F)c(F)c2)c1`, the cytotoxicity at 70.5 h is -8.75%.

Regarding `Cc1ccc(F)c(S(=O)(=O)NCc2cccc(CS(C)(=O)=O)c2)c1`, the cytotoxicity at 70.5 h is -18%.

For `Cc1nn(C)c(C)c1C(=O)N1CCN(C(=O)CCC2CCCCC2)CC1`, the cytotoxicity at 70.5 h is -13.4%.

In the case of `COC(=O)CC(NC(=O)CCn1cccn1)c1ccc(C)cc1` (stereo not drawn), the cytotoxicity at 70.5 h is -0.705%.

For `Cc1nc(C(=O)N(CC(=O)N(C)C)CC(F)(F)F)c2ccccn12`, the cytotoxicity at 70.5 h was -4.52%.

As for `Cc1occc1C(=O)NCC(O)c1ccc(Cl)s1` (stereo not drawn), the cytotoxicity at 70.5 h was determined as 3.32%.

In the case of `NC(=O)CN1CCN(S(=O)(=O)N2CCCC2c2ccco2)CC1` (stereo not drawn), the cytotoxicity at 70.5 h was -3.32%.

As to `O=c1[nH]c(C2CCOC2)nc2cc(F)c(F)cc12` (stereo not drawn), the cytotoxicity at 70.5 h is -10.3%.

Take `CC(C)CNC(=O)C(C)N1CCN(C2CCN(C(C)C)CC2)CC1` (stereo not drawn): the cytotoxicity at 70.5 h is -12.6%.

For the molecule `COc1cc(CNc2cc(-c3ccoc3C)nn2CCO)ccc1F`, the cytotoxicity at 70.5 h was found to be 11.9%.

As for `O=C(c1ccc(-n2cccn2)nc1)N1CCC(c2ccc(O)cc2)CC1`, the cytotoxicity at 70.5 h was -5.83%.

Take `COc1ccc(C(C)NCc2nnc(C)s2)cc1F` (stereo not drawn): the cytotoxicity at 70.5 h is -2.29%.

Turning to `Cc1nnc(CNC(C)c2cc(C)c(F)c(C)c2)s1` (stereo not drawn), the cytotoxicity at 70.5 h is -5.2%.

Turning to `Cc1cc(C)cc(C(C)NCc2nnc(C)s2)c1` (stereo not drawn), the cytotoxicity at 70.5 h is -12%.

Turning to `COCCN(Cc1ccc(C)o1)C(=O)Nc1ncc(C)s1`, the cytotoxicity at 70.5 h is -8.73%.

For `CCN(Cc1cccc(Cl)c1)Cc1ncc(C(C)(C)C)o1`, the cytotoxicity at 70.5 h was -1.17%.

For `COc1cc(NCCNC(=O)c2cc[nH]c2C)cc(OC)c1`, the cytotoxicity at 70.5 h was 3.9%.

With `NC(=O)CC1CCN(S(=O)(=O)N2CCCC2c2ccco2)CC1` (stereo not drawn), the cytotoxicity at 70.5 h was -5.7%.

On to `COC(=O)CC(NC(=O)CCCn1cccn1)c1ccc(Cl)cc1` (stereo not drawn), for which the cytotoxicity at 70.5 h was -14.1%.

Consider `COCc1nnc(-c2cccc(C(=O)N(C)CC(C)(C)C)c2)o1`, for which the cytotoxicity at 70.5 h was -14.1%.

Turning to `Cc1noc(CCCNC(=O)C2CSCN2C(=O)C(C)(C)C)n1` (stereo not drawn), the cytotoxicity at 70.5 h was 18.7%.

As to `Cc1ccc(CCCC(=O)N2CCC(=O)Nc3cccnc32)s1`, the cytotoxicity at 70.5 h turned out to be 12.9%.

In the case of `Cc1ncsc1CCN(C)Cc1ccc(Br)o1`, the cytotoxicity at 70.5 h stood at 9.94%.

Turning to `CC(C)c1nnc(NC(=O)Cc2csc(-c3nnc[nH]3)n2)s1`, the cytotoxicity at 70.5 h worked out at 22.4%.

Regarding `Cc1cnn(C2CN(c3nc(-c4ccncc4)nc4c3CCC4)C2)c1`, the cytotoxicity at 70.5 h was -6.05%.

`CCC(C)c1csc(NC(=O)c2sc(-c3nnc[nH]3)nc2C)n1` (stereo not drawn): the cytotoxicity at 70.5 h is -9.94%.

On to `Cc1nn2cccnc2c1C(=O)NCc1ccccc1OCC1CC1`, for which the cytotoxicity at 70.5 h was -13.8%.

As to `N#Cc1cccnc1Nc1ccc(N2CCC(C(N)=O)CC2)cc1`, the cytotoxicity at 70.5 h turned out to be 4.18%.

Take `CNC(=O)CCOC(=O)c1cccc(-n2cccn2)c1`: the cytotoxicity at 70.5 h was -10.7%.

With `O=C(Cc1cccnc1)N1CCCC(c2cc(C(F)(F)F)[nH]n2)C1` (stereo not drawn), the cytotoxicity at 70.5 h is -2.42%.

On to `O=C(Nc1cccc(C(=O)OCC2CCCN2)c1)c1ccoc1` (stereo not drawn), for which the cytotoxicity at 70.5 h was 5.78%.

`O=C(OCC1CCCN1)c1cccc(NC(=O)c2ccco2)c1` (stereo not drawn): the cytotoxicity at 70.5 h is -14.8%.

Take `Cc1occc1C(=O)Nc1cccc(C(=O)OCC2CCCN2)c1` (stereo not drawn): the cytotoxicity at 70.5 h is 23.7%.
